Values of other authors, collected in US8465912B2, “Methods for the identification of agents that inhibit mesenchymal-like tumor cells or their formation” (OSI Pharmaceuticals, LLC, priority 2009, dated 2013).

Columns and labels:
[1] = test system: advanced, treatment-refractory NSCLC; conditions: patients with advanced; cited from earlier work
[2] = test system: pancreatic cancer; conditions: in combination with gemcitabine; cited from earlier work
[3] = test system: carcinoma cells; conditions: cited from earlier work

C#Cc1cccc(Nc2ncnc3cc(OCCOC)c(OCCOC)cc23)c1 [erlotinib, [6,7-bis(2-methoxyethoxy)-4-quinazolin-4-yl]-(3-ethynylphenyl) amine]
Clinical outcome, phase III monotherapy [1]: significantly prolonged survival, delayed disease progression and delayed worsening of lung cancer-related symptoms | Survival, phase III first-line [2]: improves survival | Cellular sensitivity after EMT-like transition [3]: cellular insensitivity
